Patent US20260125374A1, “PI3K-ALPHA INHIBITORS AND METHODS OF MAKING AND USING THE SAME” (Relay Therapeutics, Inc., priority 2021, published 2026)
Marks after values point to notes of the source that are not given here.

Test: Polymorph screening (equilibration, anti-solvent, slow evaporation, slow cooling, temperature cycling, heating-cooling; XRPD and SFC)
Assay type: physicochemical
Procedure: This polymorph screening program of compound I-1 free form was performed with two batches of the pure enantiomer. Both batches are crystalline and is assigned as Form A. The polymorphic behaviors of the enantiomer were investigated by equilibration at 25° C. and 50° C., equilibration under a temperature cycle, crystallization from hot saturated solutions by slow cooling, slow evaporation, precipitation by addition of anti-solvent, and DSC heating-cooling cycle experiments. Relative stability of identified polymorphs was investigated by competitive slurry experiments.
(§1) About 50 mg of I-1 Form A was weighed into a 2 mL glass vial and equilibrated in suitable amount of solvents (pretreated by molecular sieves) at 25° C. for 2 weeks with a stirring plate and with protection from light. Obtained suspensions were filtered with 0.45 μm nylon membrane and the solid parts (wet cake) were investigated by XRPD. When differences were observed, additional investigations were performed (e.g. DSC, TGA, ^1H-NMR, SFC).
as §1, with “into” for “into a”, “vials” for “vial”, “50°” for “25°”, “10 days” for “2 weeks”, “investigation was” for “investigations were”
I-1 Form A was dissolved in a good solvent. […] The solvents used were pretreated by molecular sieve. Precipitates were collected by filtration. The solid part (wet cake) was investigated by XRPD. […] When differences were observed, additional investigations were performed (e.g. DSC, TGA, ^1H-NMR, SFC).
Based on approximate solubility results, I-1 Form A was dissolved in suitable amount of solvents (pretreated by molecular sieves). Obtained solutions were filtered by 0.45 μm nylon filter. […] Solid residues were examined for their polymorphic form. When differences were observed, additional investigations were performed (e.g. DSC, TGA, ^1H-NMR, SFC).
Approximate 50 mg of batch I-1 Form A were dissolved in the minimal amount of selected solvents (without pretreatment by molecular sieves) at 50° C. Obtained solutions were filtered by 0.45 μm nylon filter. […] Precipitates were collected by filtration. The solid parts (wet cake) were investigated by XRPD. When differences were observed, additional investigations were performed (e.g. DSC, TGA, ^1H-NMR, SFC). When no precipitation was obtained or only a few solids were obtained, the solutions were placed at 5° C. for crystallization.
About 50 mg of I-1 Form A was equilibrated in different solvents (pretreated by molecular sieves) under a temperature cycle between 5° C. to 50° C. at a heating/cooling rate of 0.2° C./min for 10 cycles and with protection from light. After 10 cycles, precipitates were collected at 5° C. by filtration. The solid parts (wet cake) were investigated by XRPD. When differences were observed, additional investigations were performed (e.g. DSC, TGA, 1H-NMR, SFC).
Polymorphic behavior of I-1 Form A was investigated by two different heating-cooling cycles of DSC. Cycle 1:30° C. to 280° C. at 10° C./min; 280° C. to −20° C. at 20° C./min; reheat to 300° C. at 10° C./min. Cycle 2:30° C. to 280° C. at 10° C./min; 280° C. to-20° C. at 2° C./min; reheat to 300° C. at 10° C./min.

[1] = anti-solvent Acetone / Heptane(2V), added III-1 Form D seeds, stirred for 1 h
[2] = anti-solvent MeOH / Water(0.1V), III-1 Form A seeds, stirred for 2 days
[3] = anti-solvent THF / MTBE(1.5V), added I-1 Form C seeds, stirred for 2 h

N#Cc1c(-c2cc(NC(=O)c3cc(F)cc(C(F)(F)F)c3)c3c(c2)C(=O)N[C@H]3c2cc(F)ccc2Cl)ccc2ncnn12 [Compound I-1, (R)-N-(3-(2-chloro-5-fluorophenyl)-6-(5-cyano-[1,2,4]triazolo[1,5-a]pyridin-6-yl)-1-oxoisoindolin-4-yl)-3-fluoro-5-(trifluoromethyl)benzamide]
XRPD [1]: I-1 Form A
ee %(SFC) [1]: ee %(SFC): 94.9%*
ee %(SFC) (anti-solvent MeOH / Water(0.1V), III-1 Form A seeds, stirred for 2 h): ee %(SFC): 98.8%*
XRPD [2]: I-1 Form A
ee %(SFC) [2]: ee %(SFC): 99.2%*
XRPD [3]: I-1 Form C
ee %(SFC) [3]: ee %(SFC): 99.5%*
XRPD (anti-solvent precipitation at 25° C.: Acetone / Heptane(2V)): I-1 Form A
XRPD (anti-solvent precipitation at 25° C.: Acetone / MTBE(4V)): I-1 Form A
XRPD (anti-solvent precipitation at 25° C.: MeOH / MTBE(4V), stirred at 25° C. for 23 days): I-1 Form E
Comments (outcome) (anti-solvent precipitation at 25° C.: MeOH / Toluene(4V)): Clear solution
XRPD (anti-solvent precipitation at 25° C.: THF / Heptane(1.5V)): I-1 Form C
XRPD (anti-solvent precipitation at 25° C.: THF / MTBE(4V)): I-1 Form C
ee %(SFC) (anti-solvent precipitation: MeOH / MTBE(4V), stirred at 25° C. for 23 days, SFC immediately after preparation): ee % (SFC): 2.7%*
ee %(SFC) (anti-solvent precipitation: THF / MTBE(4V), SFC immediately after preparation): ee % (SFC): 100.0%*
racemization in organic solvents (free form polymorph study) (certain organic solvents, including methanol and IPAc): easily racemized
XRPD (equilibration at 25° C. for 2 weeks in 1,4-Dioxane): I-1 Form A
XRPD (equilibration at 25° C. for 2 weeks in 2-MeTHF): I-1 Form A
XRPD (equilibration at 25° C. for 2 weeks in ACN/water(90:10, v/v) a.w. 0.9): I-1 + I-2 mixture
ee %(SFC) (equilibration at 25° C. for 2 weeks in ACN/water(90:10, v/v), SFC immediately after preparation): ee % (SFC): 89.6%*
XRPD (equilibration at 25° C. for 2 weeks in Acetone): I-1 + I-2 mixture
XRPD (equilibration at 25° C. for 2 weeks in Acetone/water(60:40, v/v) a.w. 0.8): I-1 + I-2 mixture
XRPD (equilibration at 25° C. for 2 weeks in Acetonitrile): I-1 Form A
XRPD (equilibration at 25° C. for 2 weeks in Benzyl alcohol): I-1 Form A
XRPD (equilibration at 25° C. for 2 weeks in Dichloromethane): I-1 Form A
XRPD (equilibration at 25° C. for 2 weeks in Ethanol): I-1 Form A
XRPD (equilibration at 25° C. for 2 weeks in Ethyl acetate): I-1 Form A
XRPD (equilibration at 25° C. for 2 weeks in Isopropyl acetate): I-1 Form A
XRPD (equilibration at 25° C. for 2 weeks in MeOH/water(55:45, v/v) a.w. 0.7): I-1 Form A
XRPD (equilibration at 25° C. for 2 weeks in Methanol): I-1 + I-2 mixture
XRPD (equilibration at 25° C. for 2 weeks in Methyl ethyl ketone): I-1 Form A
XRPD (equilibration at 25° C. for 2 weeks in THF/water(85:15, v/v) a.w. 0.9, target concentration 510 mg/mL): III-1 Form B
XRPD (equilibration at 25° C. for 2 weeks in Tetrahydrofuran): I-1 Form A
XRPD (equilibration at 25° C. for 2 weeks in Water): I-1 + I-2 mixture
XRPD (equilibration at 25° C. for 2 weeks in t-Butyl methyl ether): I-1 Form A
XRPD (4 days) (equilibration at 25° C. in THF/water(85:15, v/v) a.w. 0.9, added III-1 Form B seeds): I-1 + II-1 mixture
ee %(SFC) (equilibration at 25° C. in THF/water(85:15, v/v), 4 days, added III-1 Form B seeds): ee %(SFC): 93.8%*
XRPD (equilibration at 50° C. for 10 days in 1,4-Dioxane): I-1 Form B
ee %(SFC) (equilibration at 50° C. for 10 days in 1,4-Dioxane, SFC immediately after preparation): ee % (SFC): 100.0%*
XRPD (equilibration at 50° C. for 10 days in ACN/water(80:20, v/v) a.w. 0.9): III-1 Form A
ee %(SFC) (equilibration at 50° C. for 10 days in ACN/water(80:20, v/v), SFC immediately after preparation): ee % (SFC): 50.7%*
XRPD (equilibration at 50° C. for 10 days in Acetone): I-1 Form A
XRPD (equilibration at 50° C. for 10 days in Acetone/water(60:40, v/v) a.w. 0.8): III-1 Form C
ee %(SFC) (equilibration at 50° C. for 10 days in Acetone/water(60:40, v/v), SFC immediately after preparation): ee % (SFC): 56.9%*
XRPD (equilibration at 50° C. for 10 days in Acetonitrile): I-1 Form A
XRPD (equilibration at 50° C. for 10 days in Anisole): I-1 Form A
XRPD (equilibration at 50° C. for 10 days in EtOH/water(50:50, v/v) a.w. 0.9): III-1 Form A
ee %(SFC) (equilibration at 50° C. for 10 days in EtOH/water(50:50, v/v), SFC after preparation for about 12 h): ee % (SFC): 75.0%#;
ee %(SFC) (equilibration at 50° C. for 10 days in EtOH/water(50:50, v/v), SFC immediately after preparation): ee % (SFC): 76.9%*,
XRPD (equilibration at 50° C. for 10 days in Ethanol): I-1 Form A
